Results published in patent US20210113505A1, “METHODS OF TREATING HAIR RELATED CONDITIONS” (Nogra Pharma Limited, priority 2012, published 2021).
“Also recorded” adds a separate entry of the source.

Key:
Type in all cases: cell-based
[1] = system: K19 expression; assay: K19 quantitative immunohistochemistry in organ-cultured human scalp hair follicles; details: human scalp HF organ culture; for number of K19-positive cells relative to control: cells in the ORS
Protocol: (§1) Normal human scalp skin was obtained from 6 women undergoing routine face-lift surgery after informed consent. All experiments were performed according to Helsinki guidelines, with appropriate ethics committee approval.
(§2) Normally pigmented anagen VI hair follicles (HFs) (grey/white HFs were excluded from the study) were microdissected from normal human scalp skin and organ cultured following the Philpott model. Compound A or vehicle was administered once for each change of medium (i.e. every 48 h/72 h).
A previously described protocol was used to investigate K19 expression (Kloepper et al., 2008). Briefly, acetone-fixed cryosections were pre-treated with goat serum (10% in Tris-buffered saline, Dako). The sections were incubated first with primary antibodies against K19 (mouse anti-human: K19-1:10; overnight, at 4° C.; PROGEN, Heidelberg, Germany;) and then with FITC-labeled goat anti-mouse (1:200 in TBS, for 45 min, RT, Jackson ImmunoResearch) immunoglobulins as secondary antibodies. Counterstaining was performed with DAPI (Boehringer Mannheim, Mannheim, Germany). The intensity of this immunostaining was quantified by ImageJ software (National Institutes of Health). The staining intensity of defined reference regions in the HF was measured and compared between control and Compound A-treated groups. The percentage of K19-positive cells in comparison to the total amount of cells in the ORS was calculated.
Statistical analysis was performed using a two-tailed Student's t-test for unpaired samples. For meta-analysis purposes, a total of six assays (each with HFs from a different female individual) were run. […] In order to avoid data distortion by individual experiments, rigid exclusion criteria were defined that allowed to exclude one individual experiment (out of 5-6) per read-out parameter. Since these exclusion criteria differed for each study parameter, different experiments (i.e. one out of 6, and one out of 5 in the case of keratin 19 analysis) were excluded for each assay parameter. […]

[2] = system: keratin K15 expression; assay: K15 quantitative immunohistochemistry in organ-cultured human scalp hair follicles; details: for Keratin-15 immunoreactivity: all concentrations tested, human anagen VI scalp HF organ culture, vs vehicle
Protocol: as §1, §2
To investigate keratin K15 expression, the tyramide signal amplification method was used as previously described (Kloepper et al., 2008). Briefly, acetone fixed cryosections were washed three times for 5 min using TNT (Tris-HCL NaCl Tween) buffer (0.1 mol/l Tris-HCl, pH 7.5; containing 0.15 mol/l NaCl and 0.05% Tween 20). Next, horseradish peroxidase was blocked by washing with 3% H2O2 in phosphate-buffered saline (PBS) for 15 min. Preincubation was performed with the incubation of avidin and biotin for 15 min and 5% goat normal serum in TNT for 30 min with washing steps in between. Mouse anti-human K15 (clone LHK15, Chemicon, Billerica, USA) was diluted in TNT and incubated overnight at 4° C. followed by a biotinylated secondary antibody goat anti-mouse (1:200 in TNT) for 45 min at RT. Next, streptavidin horseradish peroxidase (TSA kit; Perkin-Elmer, Boston, Mass., USA) was administered (1:100 in TNT) for 30 min at RT. […] The intensity of the immunostaining was quantified by ImageJ software (National Institutes of Health). The staining intensity of defined reference regions in the HF was measured and compared between control and N Compound A-treated groups. The percentage of K15-positive cells in comparison to the total amount of cells in the ORS was calculated.
Statistical analysis was performed using a two-tailed Student's t-test for unpaired samples. […] In order to avoid data distortion by individual experiments, rigid exclusion criteria were defined that allowed to exclude one individual experiment (out of 5-6) per read-out parameter. […]

[3] = system: human scalp hair follicles; assay: HF cycle staging (anagen/catagen) of organ-cultured hair follicles; details: all concentrations, pooled data
Protocol: (§3) Details regarding tissue specimen origin used in the present example are as described in Example 2 above.
HF cycle staging was carried out according to previously defined morphological criteria, and the percentage of HFs in anagen and early, mid, or late catagen was determined.
To evaluate apoptotic cells in colocalization with a proliferation marker Ki-67, a Ki-67/terminal dUTP nick-end labeling (TUNEL) double-staining method was used. […] TUNEL-positive cells were visualized by an antidigoxigenin fluorescein isothiocyanate-conjugated antibody (ApopTag kit), whereas Ki-67 was detected by a rhodamine-labeled goat antimouse antibody (Jackson ImmunoResearch, West Grove, Pa.). […] Quantitative immunohistomorphometry was performed; Ki-67-, TUNEL-, or DAPI-positive cells were counted in a previously defined reference region of the HF matrix, and the percentage of Ki-67/TUNEL-positive cells were determined. […] In order to avoid data distortion by individual experiments, rigid exclusion criteria were defined that allowed to exclude one individual experiment (out of 5-6) per read-out parameter. […]

[4] = system: human scalp hair follicles; assay: LDH measurement in supernatant of hair follicle organ culture (cytotoxicity); details: for LDH activity in the supernatant: 0.1 mM dose, day 6, pooled data
Protocol: as §3
LDH activity in the supernatant can serve as an indicator of cytotoxicity and was measured following the manufacturer's instructions (Cytotoxicity Detection Kit; Roche, Mannheim, Germany). The absorbance of the samples was measured at 490 nm using an ELISA plate-reader.
(§4) To evaluate apoptotic cells in colocalization with a proliferation marker Ki-67, a Ki-67/terminal dUTP nick-end labeling (TUNEL) double-staining method was used. Cryostat sections were fixed in paraformaldehyde and ethanol-acetic acid (2:1) and labeled with a digoxigenin-deoxy-UTP (ApopTag fluorescein in situ apoptosis detection kit; Intergen, Purchase, N.Y.) in the presence of terminal deoxynucleotidyl transferase, followed by incubation with a mouse anti-Ki-67 antiserum (1:20 in PBS overnight at 4 C; Dako, Glostrup, Denmark). TUNEL-positive cells were visualized by an antidigoxigenin fluorescein isothiocyanate-conjugated antibody (ApopTag kit), whereas Ki-67 was detected by a rhodamine-labeled goat antimouse antibody (Jackson ImmunoResearch, West Grove, Pa.). Negative controls were performed by omitting terminal deoxynucleotidyl transferase and the Ki-67 antibody. Counterstaining was performed with 4′,6-diamidino-2-phenylindole (DAPI) (Roche Molecular Biochemicals GmbH, Mannheim, Germany). Quantitative immunohistomorphometry was performed; Ki-67-, TUNEL-, or DAPI-positive cells were counted in a previously defined reference region of the HF matrix, and the percentage of Ki-67/TUNEL-positive cells were determined. Statistical analysis was performed using a two-tailed Student's t-test for unpaired samples. For meta-analysis purposes, a total of six assays (each with HFs from a different female individual) were run. In order to avoid data distortion by individual experiments, rigid exclusion criteria were defined that allowed to exclude one individual experiment (out of 5-6) per read-out parameter. […]

[5] = system: human scalp hair follicles; assay: Hair shaft elongation of organ-cultured hair follicles
Protocol: as §3
Hair shaft length measurements of HFs were performed on individual HFs using a Zeiss inverted binocular microscope with an eyepiece measuring graticule.
as §4, with “parameter. Since these exclusion criteria differed for each study parameter, different experiments (i.e. one out of 6) were excluded for each assay parameter.” for “parameter.”

[6] = listed as N-acetyl-(R)-(−)-3-(4-aminophenyl)-2-methoxypropionic acid

Compound: CO[C@H](Cc1ccc(NC(C)=O)cc1)C(=O)O [Compound A, N-acetyl-(R)-(−)-3-(4-aminophenyl)-2-methoxypropionic acid]
- Keratin 19 immunoreactivity ([1]; all concentrations tested, vs vehicle): strongly stimulated
- number of K19-positive cells relative to control [1]: stimulating effect
- number of K19-positive cells relative to control [1, 6]: increased numbers
- Keratin-15 immunoreactivity [2]: strongly stimulated
- Keratin-15 immunoreactivity [2, 6]: stimulation
- number of K15-positive cells ([2]; human scalp HF organ culture, cells in the ORS): did not increase
- hair cycle effect (catagen induction) [3]: induced catagen; also recorded: catagen-inducing effect
- hair cycle effect (catagen induction) [3, 6]: trend toward catagen
- LDH activity in the supernatant [4]: slight increase
- LDH activity in the supernatant [4, 6]: increase
- Compound-associated HF toxicity ([4]; under assay conditions, from LDH activity): very low, if any
- hair shaft elongation ([5]; high dose (1 mM), day 6, pooled data): slightly, but significantly, inhibited; also recorded: inhibits
- hair shaft elongation ([5]; high dose (1 mM), day 6, pooled data, listed as N-acetyl-(R)-(−)-3-(4-aminophenyl)-2-methoxypropionic acid): inhibition
- hair shaft elongation ([5]; lower concentrations (below 1 mM)): did not have an effect
